Reference: PubChem BioAssay AID1963966 (Molecular Pharmacology Branch, DTP, NCI, 2024)

System: 935938-334-R-J1-PDC spheroids with HUVEC/MSC, viability
Assay: Anticancer human tumor 935938-334-R-J1-PDC patient-derived small intestine adenocarcinoma cell line growth inhibition [PI3K]
Conditions: for IC50: curve of first compound; for viability, T/C: stronger effect = lower value; active = viability on the fitted dose curve at most 10% of control; inactive = the rest
Method in brief: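 Tumor cells were combined with HUVEC and MSCs into spheroids, then dosed with PI3K-inhibitor combinations over half-log ranges capped near clinical Cmax or 10 microM.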

[1] = second compound 0.00316 µM, first compound 0.0316 µM
[2] = second compound 0.00316 µM, first compound 0.1 µM
[3] = second compound 0.00316 µM, first compound 0.316 µM
[4] = second compound 0.00316 µM, first compound 1 µM
[5] = second compound 0.00316 µM, first compound 3.16 µM
[6] = second compound 0.00316 µM, first compound 10 µM
[7] = second compound 0.01 µM, first compound 0.0316 µM
[8] = second compound 0.01 µM, first compound 0.1 µM
[9] = second compound 0.01 µM, first compound 0.316 µM
[10] = second compound 0.01 µM, first compound 1 µM
[11] = second compound 0.01 µM, first compound 3.16 µM
[12] = second compound 0.01 µM, first compound 10 µM
[13] = second compound 0.0316 µM, first compound 0.0316 µM
[14] = second compound 0.0316 µM, first compound 0.1 µM
[15] = second compound 0.0316 µM, first compound 0.316 µM
[16] = second compound 0.0316 µM, first compound 1 µM
[17] = second compound 0.0316 µM, first compound 3.16 µM
[18] = second compound 0.0316 µM, first compound 10 µM
[19] = second compound 0.1 µM, first compound 0.0316 µM
[20] = second compound 0.1 µM, first compound 0.1 µM
[21] = second compound 0.1 µM, first compound 0.316 µM
[22] = second compound 0.1 µM, first compound 1 µM
[23] = second compound 0.1 µM, first compound 3.16 µM
[24] = second compound 0.1 µM, first compound 10 µM
[25] = second compound 0.316 µM, first compound 0.0316 µM
[26] = second compound 0.316 µM, first compound 0.1 µM
[27] = second compound 0.316 µM, first compound 0.316 µM
[28] = second compound 0.316 µM, first compound 1 µM
[29] = second compound 0.316 µM, first compound 3.16 µM
[30] = second compound 0.316 µM, first compound 10 µM
[31] = second compound 1 µM, first compound 0.0316 µM
[32] = second compound 1 µM, first compound 0.1 µM
[33] = second compound 1 µM, first compound 0.316 µM
[34] = second compound 1 µM, first compound 1 µM
[35] = second compound 1 µM, first compound 3.16 µM
[36] = second compound 1 µM, first compound 10 µM
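Also: compound exposure lasted seven days before viability was read.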
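For viability, T/C in this document: percent of vehicle DMSO treated spheroid viability so 100% = untreated.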

C#Cc1c(F)ccc2cc(O)cc(-c3ncc4c(N5CC6CCC(C5)N6)nc(OCC56CCCN5CC(F)C6)nc4c3F)c12 (stereo not drawn) + COc1c(OCCCN2CCOCC2)ccc2c3n(c(=NC(=O)c4cnc(N)nc4)nc12)CCN3
0.586 µM: IC50 (second compound 0.0316 µM)
2.25 µM: IC50 (second compound 0.01 µM)
< 0.0316 µM: IC50 (second compound 0.316 µM) | IC50 (second compound 1 µM)
5.09 µM: IC50 (second compound 0.00316 µM)
inactive: viability, T/C [1] 97.9% | viability, T/C [2] 91.9% | viability, T/C [3] 75.3% | viability, T/C [4] 70.9% | viability, T/C [5] 57% | viability, T/C [6] 40.7% | viability, T/C [7] 101% | viability, T/C [8] 86.4% | viability, T/C [9] 103% | viability, T/C [10] 65.2% | viability, T/C [11] 46.5% | viability, T/C [12] 29.2% | viability, T/C [13] 66.4% | viability, T/C [14] 72.4% | viability, T/C [15] 53.6% | viability, T/C [16] 44.4% | viability, T/C [17] 31% | viability, T/C [18] 22.5% | viability, T/C [19] 57.5% | viability, T/C [20] 46.2% | viability, T/C [21] 39.9% | viability, T/C [22] 23% | viability, T/C [23] 24.2% | viability, T/C [24] 21.8% | viability, T/C [25] 34.4% | viability, T/C [26] 29.5% | viability, T/C [27] 27.7% | viability, T/C [28] 25.1% | viability, T/C [29] 25.6% | viability, T/C [30] 19.9% | viability, T/C [31] 27.3% | viability, T/C [32] 30.4% | viability, T/C [33] 34.1% | viability, T/C [34] 24.6% | viability, T/C [35] 22.2% | viability, T/C [36] 23.9%
0.0818 µM: IC50 (second compound 0.1 µM)

CC(Cn1ccc(-c2ccc(C#N)c(Cl)c2)n1)NC(=O)c1cc(C(C)O)[nH]n1 (stereo not drawn) + COc1c(OCCCN2CCOCC2)ccc2c3n(c(=NC(=O)c4cnc(N)nc4)nc12)CCN3
1.02 µM: IC50 (second compound 0.1 µM)
inactive: viability, T/C [1] 98% | viability, T/C [2] 87.8% | viability, T/C [3] 84.1% | viability, T/C [4] 89.2% | viability, T/C [5] 121% | viability, T/C [6] 107% | viability, T/C [7] 97.6% | viability, T/C [8] 95.2% | viability, T/C [9] 88.1% | viability, T/C [10] 77.2% | viability, T/C [11] 99.4% | viability, T/C [12] 78.7% | viability, T/C [13] 75.8% | viability, T/C [14] 61.2% | viability, T/C [15] 88.5% | viability, T/C [16] 79% | viability, T/C [17] 89.1% | viability, T/C [18] 67.1% | viability, T/C [19] 40.6% | viability, T/C [20] 57.2% | viability, T/C [21] 54.6% | viability, T/C [22] 49.9% | viability, T/C [23] 41.2% | viability, T/C [24] 33% | viability, T/C [25] 36.6% | viability, T/C [26] 35.6% | viability, T/C [27] 29.5% | viability, T/C [28] 36% | viability, T/C [29] 33.9% | viability, T/C [30] 30.8% | viability, T/C [31] 35.8% | viability, T/C [32] 39% | viability, T/C [33] 43.6% | viability, T/C [34] 39.9% | viability, T/C [35] 31.4% | viability, T/C [36] 28.9%
> 10 µM: IC50 (second compound 0.00316 µM) | IC50 (second compound 0.01 µM) | IC50 (second compound 0.0316 µM)
< 0.0316 µM: IC50 (second compound 0.316 µM) | IC50 (second compound 1 µM)

CC1(C)CCC(Nc2ncc(C(F)(F)F)c(-c3c[nH]c4c(P(C)(C)=O)c(C#N)ccc34)n2)CN1 (stereo not drawn) + COc1c(OCCCN2CCOCC2)ccc2c3n(c(=NC(=O)c4cnc(N)nc4)nc12)CCN3
< 0.0316 µM: IC50 (second compound 0.00316 µM) | IC50 (second compound 0.01 µM) | IC50 (second compound 0.0316 µM) | IC50 (second compound 0.1 µM) | IC50 (second compound 0.316 µM) | IC50 (second compound 1 µM)
inactive: viability, T/C [1] 47.8% | viability, T/C [2] 35.4% | viability, T/C [3] 35% | viability, T/C [4] 33% | viability, T/C [5] 37.3% | viability, T/C [6] 8.87% | viability, T/C [7] 40.9% | viability, T/C [8] 34.9% | viability, T/C [9] 30.1% | viability, T/C [10] 34.6% | viability, T/C [11] 29.6% | viability, T/C [12] 8.72% | viability, T/C [13] 30.4% | viability, T/C [14] 35.4% | viability, T/C [15] 33.1% | viability, T/C [16] 27.5% | viability, T/C [17] 34.2% | viability, T/C [18] 6.35% | viability, T/C [19] 35% | viability, T/C [20] 22.9% | viability, T/C [21] 20.2% | viability, T/C [22] 23.8% | viability, T/C [23] 25.7% | viability, T/C [24] 6.52% | viability, T/C [25] 25% | viability, T/C [26] 21% | viability, T/C [27] 22.8% | viability, T/C [28] 22.1% | viability, T/C [29] 23.3% | viability, T/C [30] 4.96% | viability, T/C [31] 18.2% | viability, T/C [32] 24.7% | viability, T/C [33] 15.8% | viability, T/C [34] 24.9% | viability, T/C [35] 19% | viability, T/C [36] 3.4%

Cn1cnc2c(F)c(Nc3ccc(Br)cc3Cl)c(C(=O)NOCCO)cc21 + Cc1nc(NC(=O)N2CCCC2C(N)=O)sc1-c1ccnc(C(C)(C)C(F)(F)F)c1
0.037 µM: IC50 (second compound 0.0316 µM)
0.029 µM: IC50 (second compound 0.316 µM)
inactive: viability, T/C (second compound 0.0316 µM, first compound 0.00949 µM) 62% | viability, T/C (second compound 0.0316 µM, first compound 0.03 µM) 54.8% | viability, T/C (second compound 0.0316 µM, first compound 0.0949 µM) 32.8% | viability, T/C (second compound 0.0316 µM, first compound 0.3 µM) 31.1% | viability, T/C (second compound 0.0316 µM, first compound 0.949 µM) 20.4% | viability, T/C (second compound 0.0316 µM, first compound 3 µM) 22.9% | viability, T/C (second compound 0.1 µM, first compound 0.00949 µM) 73.7% | viability, T/C (second compound 0.1 µM, first compound 0.03 µM) 44.7% | viability, T/C (second compound 0.1 µM, first compound 0.0949 µM) 41.4% | viability, T/C (second compound 0.1 µM, first compound 0.3 µM) 25.8% | viability, T/C (second compound 0.1 µM, first compound 0.949 µM) 23.6% | viability, T/C (second compound 0.1 µM, first compound 3 µM) 17.2% | viability, T/C (second compound 0.316 µM, first compound 0.00949 µM) 62.9% | viability, T/C (second compound 0.316 µM, first compound 0.03 µM) 48.5% | viability, T/C (second compound 0.316 µM, first compound 0.0949 µM) 36.9% | viability, T/C (second compound 0.316 µM, first compound 0.3 µM) 23% | viability, T/C (second compound 0.316 µM, first compound 0.949 µM) 18.6% | viability, T/C (second compound 0.316 µM, first compound 3 µM) 17.3% | viability, T/C (second compound 1 µM, first compound 0.00949 µM) 52.9% | viability, T/C (second compound 1 µM, first compound 0.03 µM) 37% | viability, T/C (second compound 1 µM, first compound 0.0949 µM) 26.4% | viability, T/C (second compound 1 µM, first compound 0.3 µM) 19.4% | viability, T/C (second compound 1 µM, first compound 0.949 µM) 14.2% | viability, T/C (second compound 1 µM, first compound 3 µM) 12.6% | viability, T/C (second compound 3.16 µM, first compound 0.00949 µM) 30.8% | viability, T/C (second compound 3.16 µM, first compound 0.03 µM) 39.6% | viability, T/C (second compound 3.16 µM, first compound 0.0949 µM) 19.6% | viability, T/C (second compound 3.16 µM, first compound 0.3 µM) 17.2% | viability, T/C (second compound 3.16 µM, first compound 0.949 µM) 18.5% | viability, T/C (second compound 3.16 µM, first compound 3 µM) 11.1% | viability, T/C (second compound 10 µM, first compound 0.00949 µM) 28.7% | viability, T/C (second compound 10 µM, first compound 0.03 µM) 20.5% | viability, T/C (second compound 10 µM, first compound 0.0949 µM) 17.2% | viability, T/C (second compound 10 µM, first compound 0.3 µM) 14.8% | viability, T/C (second compound 10 µM, first compound 0.949 µM) 14.8% | viability, T/C (second compound 10 µM, first compound 3 µM) 12.1%
0.0297 µM: IC50 (second compound 0.1 µM)
0.0116 µM: IC50 (second compound 1 µM)
< 0.00949 µM: IC50 (second compound 3.16 µM) | IC50 (second compound 10 µM)
